Results published in US10669235B2, “Indole derivatives and their use as protein kinase inhibitors” (RESPIVERT LIMITED, priority 2016, dated 2020).
Counter-ions that a name gives are not always drawn.

Assays:
MRC5 cells = assay: Cell viability assay in MRC5 cells (MTT)
PDGFRβ [1] = biological target: T1, PDGFRβ (Homo sapiens (Human), UniProt P09619); assay: PDGF-BB induced phosphorylation of PDGFRβ in fibroblasts (MRC5, HTRF); assay type: cell-based; details: MRC5 cells, PDGFBB stimulation; read-out: PDGFBB-induced PDGFRβ phosphorylation in MRC5 cells (IC50)
PAMPA permeability assay = assay type: in vitro ADME; details: pH 7, PAMPA; for Papp at 5 h, 10 µM: pH 7, 10 μM
PDGFRβ [2] = biological target: T1, PDGFRβ; assay: PDGFRβ enzyme inhibition (ADP-Glo assay); assay type: biochemical; details: mean, n = 2 (nintedanib n = 34)

T1 sequence (P09619 33-1106): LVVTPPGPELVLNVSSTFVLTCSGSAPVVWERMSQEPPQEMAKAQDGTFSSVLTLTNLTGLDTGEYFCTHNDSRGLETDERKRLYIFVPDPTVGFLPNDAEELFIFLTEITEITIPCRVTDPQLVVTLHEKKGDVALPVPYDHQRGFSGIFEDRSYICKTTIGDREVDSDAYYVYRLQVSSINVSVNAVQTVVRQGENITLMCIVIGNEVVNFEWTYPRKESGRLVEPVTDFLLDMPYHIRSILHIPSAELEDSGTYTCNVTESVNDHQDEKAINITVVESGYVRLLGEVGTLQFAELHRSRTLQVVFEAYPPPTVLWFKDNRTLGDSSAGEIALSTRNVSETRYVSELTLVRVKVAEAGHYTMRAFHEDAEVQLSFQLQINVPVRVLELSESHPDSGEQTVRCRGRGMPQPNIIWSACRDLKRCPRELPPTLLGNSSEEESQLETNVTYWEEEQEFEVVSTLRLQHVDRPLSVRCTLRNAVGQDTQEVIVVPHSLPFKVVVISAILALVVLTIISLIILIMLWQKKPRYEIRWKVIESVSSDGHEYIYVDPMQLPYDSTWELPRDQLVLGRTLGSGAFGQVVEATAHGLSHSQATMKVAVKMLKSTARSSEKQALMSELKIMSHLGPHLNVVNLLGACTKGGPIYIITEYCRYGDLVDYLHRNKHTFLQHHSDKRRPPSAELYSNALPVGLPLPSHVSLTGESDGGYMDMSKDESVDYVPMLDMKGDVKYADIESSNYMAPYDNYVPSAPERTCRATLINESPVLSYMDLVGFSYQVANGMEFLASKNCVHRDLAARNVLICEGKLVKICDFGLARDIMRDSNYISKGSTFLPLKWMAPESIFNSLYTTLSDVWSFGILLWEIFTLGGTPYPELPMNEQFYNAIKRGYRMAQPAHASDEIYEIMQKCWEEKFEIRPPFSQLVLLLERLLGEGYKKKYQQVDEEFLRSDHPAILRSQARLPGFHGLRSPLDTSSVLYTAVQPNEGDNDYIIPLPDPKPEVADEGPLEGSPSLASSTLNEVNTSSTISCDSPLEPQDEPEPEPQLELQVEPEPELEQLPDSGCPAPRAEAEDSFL

SMILES	Cell viability at 100 nM (%) (MRC5 cells)	Cell viability at 300 nM (%) (MRC5 cells)	Cell viability at 1000 nM (%) (MRC5 cells)	IC50 (PDGFRβ [1])	recovery at 5 hr, 10 μM (PAMPA permeability assay)	Papp at 5 h, 10 µM (PAMPA permeability assay)	Ki (PDGFRβ [2])
COC(=O)c1cc2c(cc1C)/C(=C(/Nc1ccc(S(=O)(=O)NCCN(C)C)cc1)c1ccccc1)C(=O)N2 [Example 25, (Z)-Methyl 3-(((4-(N-(2-(dimethylamino)ethyl)sulfamoyl)phenyl)amino)(phenyl)methylene)-5-methyl-2-oxoindoline-6-carboxylate, formate]	83.2%	74.7%	55.4%	24.2 nM	105%	11 ×10⁻⁶ cm/s	11.7 nM
COC(=O)c1cc2c(cc1C)/C(=C(/Nc1ccc(S(=O)(=O)N3CCN(CCO)CC3)cc1)c1ccccc1)C(=O)N2 [Example 26, (Z)-Methyl 3-(((4-((4-(2-hydroxyethyl)piperazin-1-yl)sulfonyl)phenyl)amino)(phenyl)methylene)-5-methyl-2-oxoindoline-6-carboxylate, formate]	84.4%	91.6%	57.6%	18.1 nM	96.2%	10.3 ×10⁻⁶ cm/s	45 nM
COC(=O)c1cc2c(cc1C)/C(=C(/Nc1ccc(C(=O)N[C@H]3CCCN(C)C3)cc1)c1ccccc1)C(=O)N2 [Example 27, (S,Z)-Methyl 5-methyl-3-(((4-((1-methylpiperidin-3-yl)carbamoyl)phenyl)amino)(phenyl)methylene)-2-oxoindoline-6-carboxylate, 0.5 formate]	106.5%	112.6%	82.9%	43 nM	54.3%	16.8 ×10⁻⁶ cm/s	18 nM
COC(=O)c1cc2c(cc1C)/C(=C(/Nc1ccc(C(=O)NCCCN3CCOCC3)cc1)c1ccccc1)C(=O)N2 [Example 29, (Z)-Methyl 5-methyl-3-(((4-((3-morpholinopropyl)carbamoyl)phenyl)amino)(phenyl)methylene)-2-oxoindoline-6-carboxylate]	116.9%	72.5%	60.8%	3.65 nM	72.1%	0.373 ×10⁻⁶ cm/s	11.2 nM
COC(=O)c1cc2c(cc1C)/C(=C(/Nc1ccc(C(=O)N3CCC4(CC3)C(=O)NCCN4C)cc1)c1ccccc1)C(=O)N2 [Example 30, (Z)-Methyl 5-methyl-3-(((4-(1-methyl-5-oxo-1,4,9-triazaspiro[5.5]undecane-9-carbonyl)phenyl)amino)(phenyl)methylene)-2-oxoindoline-6-carboxylate]	107.2%	85.3%	16.4%	6.02 nM	87.2%	0.0235 ×10⁻⁶ cm/s	10 nM
COC(=O)c1cc2c(cc1C)/C(=C(/Nc1ccc(C(=O)N3CCC(C(=O)NCCN(C)C)CC3)cc1)c1ccccc1)C(=O)N2 [Example 31, (Z)-Methyl 3-(((4-(4-((2-(dimethylamino)ethyl)carbamoyl)piperidine-1-carbonyl)phenyl)amino)(phenyl)methylene)-5-methyl-2-oxoindoline-6-carboxylate, 0.4 formate]	69.3%	47.3%	34.3%	5.52 nM	66.2%	0.00531 ×10⁻⁶ cm/s	4.83 nM
COC(=O)c1cc2c(cc1C)/C(=C(/Nc1ccc(C(=O)N(CCO)CCN(C)C)cc1)c1ccccc1)C(=O)N2 [Example 32, (Z)-Methyl 3-(((4-((2-(dimethylamino)ethyl)(2-hydroxyethyl)carbamoyl)phenyl)amino)(phenyl)methylene)-5-methyl-2-oxoindoline-6-carboxylate, 0.3 formate]	99.3%	129.3%	49.4%	4.53 nM	59.6%	0.0217 ×10⁻⁶ cm/s	5.02 nM
